Values belong to the compound of their own block, whether it stands above or below them.
Columns and labels:
[1] = biological target: T1, APOL1 G2 (Homo sapiens, UniProt O14791, DEL388-389); assay: APOL1 G2 FLIPR calcium influx assay (HEK T-REx/GCaMP6f/APOL1 G2 K6.3 cells); type: cell-based; settings: HEK293 clone expressing GCaMP6f, doxycycline-induced APOL1 G2; prevention of calcium influx; geometric mean of at least 2 assay runs
T1 construct: expressed in transfected cells; host or cells: HEK293/T-REx APOL1 G2 clone #2, doxycycline-inducible
T1 sequence (O14791 with tags, fused parts or gaps DEL388-389): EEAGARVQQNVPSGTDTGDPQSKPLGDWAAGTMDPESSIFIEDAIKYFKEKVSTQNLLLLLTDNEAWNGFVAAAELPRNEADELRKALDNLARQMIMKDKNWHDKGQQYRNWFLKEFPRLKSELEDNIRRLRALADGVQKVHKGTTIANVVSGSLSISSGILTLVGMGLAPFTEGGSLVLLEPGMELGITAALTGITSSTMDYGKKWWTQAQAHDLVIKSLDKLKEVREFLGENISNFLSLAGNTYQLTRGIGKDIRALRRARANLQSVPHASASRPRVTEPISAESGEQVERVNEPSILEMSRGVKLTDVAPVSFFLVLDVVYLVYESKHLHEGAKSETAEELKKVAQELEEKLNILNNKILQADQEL
Method in brief: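 HEK293 clone stably expressing GCaMP6f, APOL1 G2 induced with doxycycline for 6 h; compounds (duplicate 8-point dose response) preincubated 10 min at room temperature in Ca2+-free Tyrode's buffer, pH 7.4. Ca2+ added to 5 mM final, influx read on FLIPR; AC50 is geometric mean of ≥2 runs.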

[2] = biological target: T1, APOL1 G2; assay: APOL1 G2 HEK293 rescue of cell death caused by overexpression of APOL1 (CellTiter-Glo); type: cell-based; settings: HEK293/T-REx APOL1 G2 clone #2, doxycycline induction, 17 hours, CellTiter-Glo luminescence; reversal of cell death; geometric mean of at least 2 assay runs
Method in brief: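 Doxycycline (6 ng/mL)-induced HEK293/T-REx APOL1 G2 clone seeded at 5,000 cells/well with compound in duplicate 8-point 3-fold series (0.5% DMSO), 17 h at 37 °C. CellTiter-Glo luminescence; EC50 from four-parameter logistic fit, geometric mean of ≥2 runs.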

SMILES: CS(=O)(=O)c1ccc(OCC2C[C@@H](CO)N(CCc3cccc(Cl)c3)C2)cc1 (single isomer, unassigned) [Compound 123, [(2S,4S or 4R)-1-[2-(3-chlorophenyl)ethyl]-4-[(4-methanesulfonylphenoxy)methyl]pyrrolidin-2-yl]methanol]
AC50 [1]: 201 nM
EC50 [2]: 393 nM

SMILES: C[C@@H]1C[C@H](COc2ccc(S(C)(=O)=O)cc2)CN1C1Cc2ccc(Cl)cc2C1 (single isomer, unassigned) [Compound 3, (2R,4S)-1-[(2R or 2S)-5-chloro-2,3-dihydro-1H-inden-2-yl]-4-[(4-methanesulfonylphenoxy)methyl]-2-methylpyrrolidine]
AC50 [1]: 721 nM
EC50 [2]: 398 nM

SMILES: C[C@@H]1C[C@H](COc2ccc(S(C)(=O)=O)cc2)CN1C1CCc2c(Cl)cccc2C1 (single isomer, unassigned) [Compound 138, (2R,4S)-1-[(2R or 2S)-5-chloro-1,2,3,4-tetrahydronaphthalen-2-yl]-4-[(4-methanesulfonylphenoxy)methyl]-2-methylpyrrolidine]
AC50 [1]: 1080 nM
EC50 [2]: 149 nM

SMILES: C[C@@H]1C[C@H](COc2ccc(S(=O)(=O)CCCS(C)(=O)=O)cc2)CN1C1CCc2ccc(C#N)cc2C1 (single isomer, unassigned) [Compound 35]
AC50 [1]: 948 nM
EC50 [2]: 256 nM

SMILES: C[C@@H]1CN(CC(CO)c2cc(Cl)cc(C#N)c2)C[C@H]1COc1ccc(S(C)(=O)=O)cc1 (stereo partly drawn) [Compound 126, 3-chloro-5-(1-hydroxy-3-((3S,4S)-3-methyl-4-((4-(methylsulfonyl)phenoxy)methyl)pyrrolidin-1-yl)propan-2-yl)benzonitrile]
AC50 [1]: 1740 nM
EC50 [2]: 2760 nM

SMILES: C[C@@H]1C[C@H](COc2ccc(S(=O)(=O)CCCS(C)(=O)=O)cc2)CN1C1CCc2c(C#N)cc(Cl)cc2C1 (single isomer, unassigned) [Compound 44, (6R or 6S)-3-chloro-6-[(2R,4S)-4-{[4-(3-methanesulfonylpropanesulfonyl)phenoxy]methyl}-2-methylpyrrolidin-1-yl]-5,6,7,8-tetrahydronaphthalene-1-carbonitrile]
AC50 [1]: 1380 nM
EC50 [2]: 312 nM

SMILES: Cc1cc(OC[C@H]2C[C@@H](C)N(CCc3cccc(C#N)c3)C2)cnc1S(C)(=O)=O (single isomer, unassigned) [Compound 30]
AC50 [1]: 185 nM
EC50 [2]: 38.4 nM

SMILES: C[C@@H]1C[C@H](COc2ccc(S(=O)(=O)CCS(C)(=O)=O)cc2)CN1C1CCc2ccc(C#N)cc2C1 (single isomer, unassigned) [Compound 32]
AC50 [1]: 769 nM
EC50 [2]: 353 nM

SMILES: C[C@@H]1C[C@H](COc2ccc(S(=O)(=O)CCCS(C)(=O)=O)cc2)CN1C1CCc2ccc(Cl)cc2C1 (single isomer, unassigned) [Compound 54, (2R,4S)-1-[(2S or 2R)-7-chloro-1,2,3,4-tetrahydronaphthalen-2-yl]-4-{[4-(3-methanesulfonylpropanesulfonyl)phenoxy]methyl}-2-methylpyrrolidine]
AC50 [1]: 857 nM
EC50 [2]: 54.8 nM

SMILES: C[C@@H]1C[C@H](COc2ccc(S(=O)(=O)CCCS(C)(=O)=O)cc2)CN1C1CCc2ccc(C#N)cc2C1 (single isomer, unassigned) [Compound 36, (7S or 7R)-7-[(2R,4S)-4-{[4-(3-methanesulfonylpropanesulfonyl)phenoxy]methyl}-2-methylpyrrolidin-1-yl]-5,6,7,8-tetrahydronaphthalene-2-carbonitrile]
AC50 [1]: 714 nM
EC50 [2]: 36.3 nM

SMILES: C[C@@H]1CN(C(CO)Cc2cc(Cl)cc(C#N)c2)C[C@H]1COc1ccc(S(C)(=O)=O)cc1 (single isomer, unassigned) [Compound 121, 3-chloro-5-[(2R or 2S)-3-hydroxy-2-[(3S,4S)-3-[(4-methanesulfonylphenoxy)methyl]-4-methylpyrrolidin-1-yl]propyl]benzonitrile]
AC50 [1]: 1110 nM
EC50 [2]: > 10000 nM

SMILES: C[C@@H]1CN(CCc2cccc(C#N)c2)C[C@H]1COc1cnc(S(C)(=O)=O)cn1 [Compound 20, 3-{2-[(3S,4S)-3-{[(5-methanesulfonylpyrazin-2-yl)oxy]methyl}-4-methylpyrrolidin-1-yl]ethyl}benzonitrile]
AC50 [1]: 776 nM
EC50 [2]: 1120 nM

Further lines, with some results ahead:

AC50 [1]: 492 nM
SMILES: CN=S(C)(=O)c1ccc(OC[C@@H]2CN(CCc3cccc(C#N)c3)C[C@H]2C)cn1 (stereo partly drawn) [Compound 71, 3-{2-[(3S,4S)-3-methyl-4-[({6-[methyl(methylimino)oxo-λ^6-sulfanyl]pyridin-3-yl}oxy)methyl]pyrrolidin-1-yl]ethyl}benzonitrile]
EC50 [2]: 287 nM

AC50 [1]: 419 nM
SMILES: CC(=O)N(C)CCS(=O)(=O)c1ccc(OC[C@@H]2CN(CCc3cc(Cl)cc(C#N)c3)C[C@H]2C)cc1 [Compound 75, N-[2-(4-{[(3S,4S)-1-[2-(3-chloro-5-cyanophenyl)ethyl]-4-methylpyrrolidin-3-yl]methoxy}benzenesulfonyl)ethyl]-N-methylacetamide]
EC50 [2]: 70.6 nM

AC50 [1]: 601 nM
SMILES: C[C@@H]1C[C@H](COc2ccc(S(C)(=O)=O)cc2)CN1C1CCc2c(C#N)cccc2C1 (single isomer, unassigned) [Compound 134, (6R or 6S)-6-[(2R,4S)-4-[(4-methanesulfonylphenoxy)methyl]-2-methylpyrrolidin-1-yl]-5,6,7,8-tetrahydronaphthalene-1-carbonitrile]
EC50 [2]: 292 nM

AC50 [1]: 4920 nM
SMILES: CS(=O)(=O)c1ccc(OCC2C[C@@H](CO)N(CCc3cccc(Cl)c3)C2)cc1 (single isomer, unassigned) [Compound 124, [(2S,4R or 4S)-1-[2-(3-chlorophenyl)ethyl]-4-[(4-methanesulfonylphenoxy)methyl]pyrrolidin-2-yl]methanol]
EC50 [2]: 5310 nM

AC50 [1]: 446 nM
SMILES: CS(=O)(=O)c1ccc(OC[C@@H]2CCCN(C3CCc4ccc(Cl)cc4C3)C2)cc1 (single isomer, unassigned) [Compound 132, (3R)-1-[(2S or 2R)-7-chloro-1,2,3,4-tetrahydronaphthalen-2-yl]-3-[(4-methanesulfonylphenoxy)methyl]piperidine]
EC50 [2]: 924 nM

AC50 [1]: 802 nM
SMILES: C[C@@H]1C[C@H](COc2ccc(S(=O)(=O)CCO)cc2)CN1C1CCc2c(C#N)cc(Cl)cc2C1 (single isomer, unassigned) [Compound 57, (6S or 6R)-3-chloro-6-[(2R,4S)-4-{[4-(2-hydroxyethanesulfonyl)phenoxy]methyl}-2-methylpyrrolidin-1-yl]-5,6,7,8-tetrahydronaphthalene-1-carbonitrile]
EC50 [2]: 266 nM

AC50 [1]: 392 nM
SMILES: Cc1c(C#N)cc(Cl)cc1CCN1C[C@@H](CO)[C@H](COc2ccc(S(C)(=O)=O)cc2)C1 [Compound 23, 5-chloro-3-{2-[(3S,4S)-3-(hydroxymethyl)-4-[(4-methanesulfonylphenoxy)methyl]pyrrolidin-1-yl]ethyl}-2-methylbenzonitrile]
EC50 [2]: 309 nM

AC50 [1]: 1260 nM
SMILES: C[C@@H]1C[C@H](COc2ccc(S(C)(=O)=O)cc2)CN1C1CCc2c(Cl)cccc2C1 (single isomer, unassigned) [Compound 139, (2R,4S)-1-[(2S or 2R)-5-chloro-1,2,3,4-tetrahydronaphthalen-2-yl]-4-[(4-methanesulfonylphenoxy)methyl]-2-methylpyrrolidine]
EC50 [2]: 260 nM

AC50 [1]: < 229 nM
SMILES: CS(=O)(=O)c1ccc(OC[C@@H]2CCCN(C3CCc4ccc(Cl)cc4C3)C2)cc1 (stereo partly drawn) [Compound 131, (3R)-1-(7-chloro-1,2,3,4-tetrahydronaphthalen-2-yl)-3-[(4-methanesulfonylphenoxy)methyl]piperidine]
EC50 [2]: 994 nM

AC50 [1]: 310 nM
SMILES: CS(=O)(=O)c1ccc(OC[C@@H]2CN(CCc3cc(Cl)cc(C#N)c3)C[C@H]2CO)cc1 [Compound 24, 3-chloro-5-{2-[(3S,4S)-3-(hydroxymethyl)-4-[(4-methanesulfonylphenoxy)methyl]pyrrolidin-1-yl]ethyl}benzonitrile]
EC50 [2]: 410 nM

AC50 [1]: 222 nM
SMILES: C[C@@H]1C[C@H](COc2ccc(S(C)(=O)=O)cc2)CN1C1CCc2ccc(C#N)cc2C1 (single isomer, unassigned) [Compound 137, (7R or 7S)-7-[(2R,4S)-4-[(4-methanesulfonylphenoxy)methyl]-2-methylpyrrolidin-1-yl]-5,6,7,8-tetrahydronaphthalene-2-carbonitrile]
EC50 [2]: 35.8 nM

AC50 [1]: 698 nM
SMILES: C[C@@H]1C[C@H](COc2ccc(S(=O)(=O)CCO)cc2)CN1C1CCc2ccc(Cl)cc2C1 (stereo partly drawn) [Compound 61, 2-(4-{[(3S,5R)-1-[7-chloro-1,2,3,4-tetrahydronaphthalen-2-yl]-5-methylpyrrolidin-3-yl]methoxy}benzenesulfonyl)ethan-1-ol]
EC50 [2]: 63.3 nM

— patent US20260055083A1, “APOL1 INHIBITORS AND METHODS OF USE” (Maze Therapeutics, Inc., priority 2022, published 2026)
